Results taken from patent US20240059671A1, “TYROSINE KINASE 2 (TYK2) DEGRADATION COMPOUNDS AND METHODS OF USE” (CULLGEN (SHANGHAI), INC., priority 2020, published 2024).

Target: TYK2 (Homo sapiens, UniProt P29597)
Assay: TYK2 protein degradation in MOLT-4 cells by immunoblotting
Assay type: cell-based
Set-up: endogenous in cells; host or cells: MOLT-4
Conditions: MOLT-4 cells, 24 hours
Summary of the method: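 Percent TYK2 degradation came from densitometry of chemiluminescent immunoblots of RIPA lysates. Before lysis, MOLT-4 cells had been treated for 24 h with each compound at 0.5 or 5 μM.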

TYK2, sequence (P29597 whole entry): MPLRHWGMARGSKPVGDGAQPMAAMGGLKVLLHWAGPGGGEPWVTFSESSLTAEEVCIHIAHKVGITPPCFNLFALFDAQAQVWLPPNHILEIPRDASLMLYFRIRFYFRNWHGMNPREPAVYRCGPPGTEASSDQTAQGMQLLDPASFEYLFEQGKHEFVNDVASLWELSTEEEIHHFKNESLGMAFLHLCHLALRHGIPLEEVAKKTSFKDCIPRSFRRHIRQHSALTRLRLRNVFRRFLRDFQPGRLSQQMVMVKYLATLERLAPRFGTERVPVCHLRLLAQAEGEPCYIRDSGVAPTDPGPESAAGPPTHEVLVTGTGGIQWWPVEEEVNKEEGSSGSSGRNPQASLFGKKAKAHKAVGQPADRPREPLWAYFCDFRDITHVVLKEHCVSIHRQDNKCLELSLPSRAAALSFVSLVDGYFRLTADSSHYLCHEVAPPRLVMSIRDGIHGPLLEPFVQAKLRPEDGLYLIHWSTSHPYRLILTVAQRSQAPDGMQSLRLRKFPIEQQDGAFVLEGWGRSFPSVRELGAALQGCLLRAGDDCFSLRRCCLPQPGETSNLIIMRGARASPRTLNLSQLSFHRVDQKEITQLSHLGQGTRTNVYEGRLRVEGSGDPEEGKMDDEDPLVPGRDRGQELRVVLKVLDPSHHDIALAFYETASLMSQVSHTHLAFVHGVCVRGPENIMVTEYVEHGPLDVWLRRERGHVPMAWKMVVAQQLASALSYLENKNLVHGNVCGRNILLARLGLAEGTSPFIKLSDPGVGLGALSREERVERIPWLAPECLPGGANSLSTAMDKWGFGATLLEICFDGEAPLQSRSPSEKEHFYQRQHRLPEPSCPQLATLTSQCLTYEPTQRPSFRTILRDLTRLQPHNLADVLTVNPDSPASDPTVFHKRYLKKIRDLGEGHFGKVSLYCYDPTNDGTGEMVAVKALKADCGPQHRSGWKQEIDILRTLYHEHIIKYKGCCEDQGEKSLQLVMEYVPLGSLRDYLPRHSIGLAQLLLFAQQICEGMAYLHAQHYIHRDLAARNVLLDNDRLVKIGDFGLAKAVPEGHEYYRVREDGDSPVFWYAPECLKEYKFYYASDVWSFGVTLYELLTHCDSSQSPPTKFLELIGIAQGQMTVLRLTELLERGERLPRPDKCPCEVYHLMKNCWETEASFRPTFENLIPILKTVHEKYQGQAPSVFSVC

| Structure (SMILES) | TYK2 Degradation (0.5 μM) | TYK2 Degradation (5 μM) | TYK2 Degradation (MOLT-4, 0.5 μM) | TYK2 Degradation (MOLT-4, 5 μM) |
| --- | --- | --- | --- | --- |
| CNC(=O)c1nnc(NC(=O)C2CC2)cc1Nc1cccc(-c2ncn(CCNC(=O)CCCC(=O)N[C@H](C(=O)N3C[C@H](O)C[C@H]3C(=O)NCc3ccc(-c4scnc4C)cc3)C(C)(C)C)n2)c1OC [CPD-076, N^1-(2-(3-(3-((6-(Cyclopropanecarboxamido)-3-(methylcarbamoyl)pyridazin-4-yl)amino)-2-methoxyphenyl)-1H-1,2,4-triazol-1-yl)ethyl)-N^5-((S)-1-((2S,4R)-4-hydroxy-2-((4-(4-methylthiazol-5-yl)benzyl)carbamoyl)pyrrolidin-1-yl)-3,3-dimethyl-1-oxobutan-2-yl)glutaramide] | ≤20% | ≤20% | – | – |
| CNC(=O)c1nnc(NC(=O)C2CC2)cc1Nc1cccc(-c2ncn(CCNC(=O)CCCCC(=O)N[C@H](C(=O)N3C[C@H](O)C[C@H]3C(=O)NCc3ccc(-c4scnc4C)cc3)C(C)(C)C)n2)c1OC [CPD-077, N^1-(2-(3-(3-((6-(Cyclopropanecarboxamido)-3-(methylcarbamoyl)pyridazin-4-yl)amino)-2-methoxyphenyl)-1H-1,2,4-triazol-1-yl)ethyl)-N^6-((S)-1-((2S,4R)-4-hydroxy-2-((4-(4-methylthiazol-5-yl)benzyl)carbamoyl)pyrrolidin-1-yl)-3,3-dimethyl-1-oxobutan-2-yl)adipamide] | ≤20% | ≤20% | – | – |
| CNC(=O)c1nnc(NC(=O)C2CC2)cc1Nc1cccc(-c2ncn(CCNC(=O)CCCCCC(=O)N[C@H](C(=O)N3C[C@H](O)C[C@H]3C(=O)NCc3ccc(-c4scnc4C)cc3)C(C)(C)C)n2)c1OC [CPD-078, N^1-(2-(3-(3-((6-(Cyclopropanecarboxamido)-3-(methylcarbamoyl)pyridazin-4-yl)amino)-2-methoxyphenyl)-1H-1,2,4-triazol-1-yl)ethyl)-N^7-((S)-1-((2S,4R)-4-hydroxy-2-((4-(4-methylthiazol-5-yl)benzyl)carbamoyl)pyrrolidin-1-yl)-3,3-dimethyl-1-oxobutan-2-yl)heptanediamide] | ≤20% | ≤20% | – | – |
| CNC(=O)c1nnc(NC(=O)C2CC2)cc1Nc1cccc(-c2ncn(CCNC(=O)CCCCCCC(=O)N[C@H](C(=O)N3C[C@H](O)C[C@H]3C(=O)NCc3ccc(-c4scnc4C)cc3)C(C)(C)C)n2)c1OC [CPD-079, N^1-(2-(3-(3-((6-(Cyclopropanecarboxamido)-3-(methylcarbamoyl)pyridazin-4-yl)amino)-2-methoxyphenyl)-1H-1,2,4-triazol-1-yl)ethyl)-N^8-((S)-1-((2S,4R)-4-hydroxy-2-((4-(4-methylthiazol-5-yl)benzyl)carbamoyl)pyrrolidin-1-yl)-3,3-dimethyl-1-oxobutan-2-yl)octanediamide] | – | – | C (C: ≤20% TYK2 degradation) | C (C: ≤20% TYK2 degradation) |
| CNC(=O)c1nnc(NC(=O)C2CC2)cc1Nc1cccc(-c2ncn(CCNC(=O)CCCCCCCC(=O)N[C@H](C(=O)N3C[C@H](O)C[C@H]3C(=O)NCc3ccc(-c4scnc4C)cc3)C(C)(C)C)n2)c1OC [CPD-080, N^1-(2-(3-(3-((6-(Cyclopropanecarboxamido)-3-(methylcarbamoyl)pyridazin-4-yl)amino)-2-methoxyphenyl)-1H-1,2,4-triazol-1-yl)ethyl)-N^9-((S)-1-((2S,4R)-4-hydroxy-2-((4-(4-methylthiazol-5-yl)benzyl)carbamoyl)pyrrolidin-1-yl)-3,3-dimethyl-1-oxobutan-2-yl)nonanediamide] | – | – | C (C: ≤20% TYK2 degradation) | C (C: ≤20% TYK2 degradation) |
| CNC(=O)c1nnc(NC(=O)C2CC2)cc1Nc1cccc(-c2ncn(CCNC(=O)CCCCCCCCC(=O)N[C@H](C(=O)N3C[C@H](O)C[C@H]3C(=O)NCc3ccc(-c4scnc4C)cc3)C(C)(C)C)n2)c1OC [CPD-081, N^1-(2-(3-(3-((6-(Cyclopropanecarboxamido)-3-(methylcarbamoyl)pyridazin-4-yl)amino)-2-methoxyphenyl)-1H-1,2,4-triazol-1-yl)ethyl)-N^10-((S)-1-((2S,4R)-4-hydroxy-2-((4-(4-methylthiazol-5-yl)benzyl)carbamoyl)pyrrolidin-1-yl)-3,3-dimethyl-1-oxobutan-2-yl)decanediamide] | – | – | C (C: ≤20% TYK2 degradation) | C (C: ≤20% TYK2 degradation) |
| CNC(=O)c1nnc(NC(=O)C2CC2)cc1Nc1cccc(-c2ncn(CCNC(=O)CCCCCCCCCC(=O)N[C@H](C(=O)N3C[C@H](O)C[C@H]3C(=O)NCc3ccc(-c4scnc4C)cc3)C(C)(C)C)n2)c1OC [CPD-082, N^1-(2-(3-(3-((6-(Cyclopropanecarboxamido)-3-(methylcarbamoyl)pyridazin-4-yl)amino)-2-methoxyphenyl)-1H-1,2,4-triazol-1-yl)ethyl)-N^11-((S)-1-((2S,4R)-4-hydroxy-2-((4-(4-methylthiazol-5-yl)benzyl)carbamoyl)pyrrolidin-1-yl)-3,3-dimethyl-1-oxobutan-2-yl)undecanediamide] | – | – | C (C: ≤20% TYK2 degradation) | C (C: ≤20% TYK2 degradation) |
| CNC(=O)c1nnc(NC(=O)CNC(=O)CCCCCCC(=O)N[C@H](C(=O)N2C[C@H](O)C[C@H]2C(=O)N[C@@H](C)c2ccc(-c3scnc3C)cc2)C(C)(C)C)cc1Nc1cccc(-c2ncn(C)n2)c1OC [CPD-083, N^1-((S)-1-((2S,4R)-4-Hydroxy-2-(((S)-1-(4-(4-methylthiazol-5-yl)phenyl)ethyl)carbamoyl)pyrrolidin-1-yl)-3,3-dimethyl-1-oxobutan-2-yl)-N^8-(2-((5-((2-methoxy-3-(1-methyl-1H-1,2,4-triazol-3-yl)phenyl)amino)-6-(methylcarbamoyl)pyridazin-3-yl)amino)-2-oxoethyl)octanediamide] | – | – | B (B: <60% TYK2 degradation, and >20% TYK2 degradation) | A (A: ≥60% TYK2 degradation) |
| CNC(=O)c1nnc(NC(=O)CNC(=O)CCCCCCCC(=O)N[C@H](C(=O)N2C[C@H](O)C[C@H]2C(=O)N[C@@H](C)c2ccc(-c3scnc3C)cc2)C(C)(C)C)cc1Nc1cccc(-c2ncn(C)n2)c1OC [CPD-084, N1-((S)-1-((2S,4R)-4-hydroxy-2-(((S)-1-(4-(4-methylthiazol-5-yl)phenyl)ethyl)carbamoyl)pyrrolidin-1-yl)-3,3-dimethyl-1-oxobutan-2-yl)-N9-(2-((5-((2-methoxy-3-(1-methyl-1H-1,2,4-triazol-3-yl)phenyl)amino)-6-(methylcarbamoyl)pyridazin-3-yl)amino)-2-oxoethyl)nonanediamide] | – | – | A (A: ≥60% TYK2 degradation) | A (A: ≥60% TYK2 degradation) |

The next lines start with the values.

| TYK2 Degradation (0.5 μM) | TYK2 Degradation (5 μM) | TYK2 Degradation (MOLT-4, 0.5 μM) | TYK2 Degradation (MOLT-4, 5 μM) | Structure (SMILES) |
| --- | --- | --- | --- | --- |
| – | – | C (C: ≤20% TYK2 degradation) | – | CNC(=O)c1nnc(NC(=O)CNC(=O)CNC(=O)C[C@H](NC(=O)[C@@H]2C[C@@H](O)CN2C(=O)[C@@H](NC(=O)C2(F)CC2)C(C)(C)C)c2ccc(-c3scnc3C)cc2)cc1Nc1cccc(-c2ncn(C)n2)c1OC [CPD-086, 6-(2-(2-((S)-3-((2S,4R)-1-((S)-2-(1-Fluorocyclopropane-1-carboxamido)-3,3-dimethylbutanoyl)-4-hydroxypyrrolidine-2-carboxamido)-3-(4-(4-methylthiazol-5-yl)phenyl)propanamido)acetamido)acetamido)-4-((2-methoxy-3-(1-methyl-1H-1,2,4-triazol-3-yl)phenyl)amino)-N-methylpyridazine-3-carboxamide] |
| – | – | C (C: ≤20% TYK2 degradation) | – | CNC(=O)c1nnc(NC(=O)CNC(=O)CCNC(=O)C[C@H](NC(=O)[C@@H]2C[C@@H](O)CN2C(=O)[C@@H](NC(=O)C2(F)CC2)C(C)(C)C)c2ccc(-c3scnc3C)cc2)cc1Nc1cccc(-c2ncn(C)n2)c1OC [CPD-087, 6-(2-(3-((S)-3-((2S,4R)-1-((S)-2-(1-Fluorocyclopropane-1-carboxamido)-3,3-dimethylbutanoyl)-4-hydroxypyrrolidine-2-carboxamido)-3-(4-(4-methylthiazol-5-yl)phenyl)propanamido)propanamido)acetamido)-4-((2-methoxy-3-(1-methyl-1H-1,2,4-triazol-3-yl)phenyl)amino)-N-methylpyridazine-3-carboxamide] |
| – | – | C (C: ≤20% TYK2 degradation) | – | CNC(=O)c1nnc(NC(=O)CNC(=O)CCCNC(=O)C[C@H](NC(=O)[C@@H]2C[C@@H](O)CN2C(=O)[C@@H](NC(=O)C2(F)CC2)C(C)(C)C)c2ccc(-c3scnc3C)cc2)cc1Nc1cccc(-c2ncn(C)n2)c1OC [CPD-088, 6-(2-(4-((S)-3-((2S,4R)-1-((S)-2-(1-Fluorocyclopropane-1-carboxamido)-3,3-dimethylbutanoyl)-4-hydroxypyrrolidine-2-carboxamido)-3-(4-(4-methylthiazol-5-yl)phenyl)propanamido)butanamido)acetamido)-4-((2-methoxy-3-(1-methyl-1H-1,2,4-triazol-3-yl)phenyl)amino)-N-methylpyridazine-3-carboxamide] |
| – | – | C (C: ≤20% TYK2 degradation) | C (C: ≤20% TYK2 degradation) | CNC(=O)c1nnc(NC(=O)CNC(=O)CCCCNC(=O)C[C@H](NC(=O)[C@@H]2C[C@@H](O)CN2C(=O)[C@@H](NC(=O)C2(F)CC2)C(C)(C)C)c2ccc(-c3scnc3C)cc2)cc1Nc1cccc(-c2ncn(C)n2)c1OC [CPD-089, 6-(2-(5-((S)-3-((2S,4R)-1-((S)-2-(1-Fluorocyclopropane-1-carboxamido)-3,3-dimethylbutanoyl)-4-hydroxypyrrolidine-2-carboxamido)-3-(4-(4-methylthiazol-5-yl)phenyl)propanamido)pentanamido)acetamido)-4-((2-methoxy-3-(1-methyl-1H-1,2,4-triazol-3-yl)phenyl)amino)-N-methylpyridazine-3-carboxamide] |
